# In patent US9636323B2, “Method of treating cancer that overexpresses TopBP1” (Baylor College of Medicine, priority 2014, dated 2017):
# Assays:
# [1] = system: p53 transcriptional activity; assay: p53 activity reporter assay (p21 promoter dual luciferase) in H1299 cells; type: cell-based, human
# Protocol: E2F1 activity reporter assay using a p14^ARF promoter-luciferase plasmid was performed as described (Liu et al. 2003). p53 activity reporter assay was performed by a p21^Cip promoter-luciferase plasmid (Liu et al. 2009). p73 activity reporter assay was performed using a pGL3-Bax promoter-luciferase plasmid (Liu et al. 2011). pRL-TK (Renilla luciferase, Promega) was used in all experiments for controlling transfection efficiency. The firefly and Renilla luciferase activities were measured by Dual-Luciferase Reporter System (Promega), and the firefly luciferase activities were normalized against the Renilla activity. All assays were performed in triplicate.
# [2] = system: MDA-MB468; assay: DNA damage signals (pS15-p53, γ-H2AX) in MDA-MB468; type: cell-based, human; settings: up to 10 μM
# Protocol: (§1) MDA-MB468 cells were lysed with TNN buffer (Liu et al. 2003). An aliquot of cell lysates was lysed with SDS lysis buffer and the rest of cell lysates were incubated with appropriate antibodies or beads at 4° C. for 3-12 h. Anti-FLAG beads (Sigma) were washed three times with TNN buffer. Immunoprecipitates were fractionated by SDS-PAGE and electro-transferred to Immobilon-P membrane (Millipore). Equal amount of protein loading was validated with Ponceau-S staining. The specific signals were detected by incubating with appropriate antibody. All primary antibodies were used at 1:1000 dilution and horseradish peroxidase (HRP)-conjugated secondary antibodies were used at 1:5000 dilution for immunoblotting. E2F1 (C-20 and KH-95), p53 (FL393), p63 (4A4 and H-129), p73 (H-79), p21 (C-19), Bax (N-20), GST (B-14), c-Myc (A14), Miz1 (H-190), Chk1 (G4), Actin (C-2) and GAPDH (6C5) antibodies were purchased from Santa Cruz. TopBP1 (mouse monoclonal) and Aid antibodies were purchased from BD Transduction Laboratories. TopBP1 (BL893, Rabbit polyclonal) antibody was purchased from Bethyl. Mouse monoclonal anti-phospho-γH2AX was purchased from Millipore. Phospho-Chk1 (Ser345) antibody was purchased from Cell signaling. FLAG (F7425) antibody was purchased from Sigma. Mouse monoclonal anti-p73 (IMG-246) was purchased from IMGENEX.
# [3] = system: mutp53/p73 interaction; assay: Anti-p73 immunoprecipitation in MDA-MB468 cells; type: cell-based, human; settings: 2.5 μM, 5 h
# Protocol: as §1
# [4] = system: U-87 MG glioblastoma multiforme cells; assay: Caspase 3/7 activation assay, U-87 MG; type: cell-based; settings: 2.5 or 5 μM, 16 hours
# Protocol: The apoptosis was measured by Caspase-Glo® 3/7 assay (Promega) following the manufacturer's protocol. The cells were plated in 6-well tissue culture dish (10^4 cells/well) (BD Falcon) in respective media. […] The blank reactions were prepared per direction. Equal volume of Caspase-Glo® 3/7 reagents were applied to each well. A luminometer (Sirius) was used to quantitate luminescence.
# [5] = system: T47D (PIK3CA mutant H1047R); settings: NCI-60 cell lines database; cited from earlier work
# [6] = system: MDA-MB231 cells; assay: MTS assay, MDA-MB231; type: cell-based, human
# Protocol: Then 50 μl of MTS reagent (CellTiter 96® AQueous One Solution Cell Proliferation Assay, Promega) was added to each well, covered from light and incubated for 1 h at 37.0 incubator to develop purple color. The samples were measured at 490 nm in a plate reader (BioTek Synergy HT) against a blank 48-well plate. Each assay was done in triplicate.
# [7] = biological target: T1, TopBP1/E2F1 interaction (Homo sapiens, UniProt Q92547); assay: Co-immunoprecipitation in MDA-MB468 cells, TopBP1/E2F1; type: cell-based; settings: 2.5 μM, 5 h
# T1 construct: endogenous in cells; host or cells: MDA-MB468
# Protocol: as §1
# [8] = system: MDA-MB468 xenografts; assay: MDA-MB468 xenograft model; type: in vivo, nude mice
# Protocol: Female nu/nu mice (4-5 weeks old) were purchased from Charles River Laboratories (Cambridge, Mass.). The animals were cared for and maintained by the Animal Care and Use Committee of Baylor College of Medicine. Freshly grown MDA-MB468 breast cancer cells [(8×10^6) cells per site in 100 μl phosphate-buffered saline (PBS)] were injected subcutaneously into the right side of the flank of the 5-6 weeks old mice. When tumors were measurable, the mice were randomly divided into treatment and control groups. […] The control group mice were injected with vehicle (DMSO) in the same way. The mice were monitored thrice per week. The weight of the mice and tumor size were measured on the indicated day with a caliper and calculated based on the formula π/6 (length×depth×width). The evaluator was blinded to the group allocation during monitoring. Animals were sacrificed in the indicated dates, and tumors were harvested, weighed, and further processed for histopathological analysis. All experiments were performed under a Baylor College of Medicine Institutional Animal Care and Use Committee (IACUC)-approved protocol and all experiments confirm to IACUC standards and ethical regulations.
# Next day the samples were sent to The Pathology and Histology Core of Baylor College of Medicine for further processing. The paraffin-embedded sections were stained with H&E, Ki-67, TUNEL and anti-cleaved caspase-3 using standard operating protocols.
# [9] = biological target: T1, TopBP1/E2F1 interaction; assay: Co-immunoprecipitation in BT549 cells, TopBP1/E2F1; type: cell-based; settings: 2.5 μM, 3 h
# [10] = 40 mg/kg i.p. every three days for three doses
# T1 sequence (Q92547 whole entry): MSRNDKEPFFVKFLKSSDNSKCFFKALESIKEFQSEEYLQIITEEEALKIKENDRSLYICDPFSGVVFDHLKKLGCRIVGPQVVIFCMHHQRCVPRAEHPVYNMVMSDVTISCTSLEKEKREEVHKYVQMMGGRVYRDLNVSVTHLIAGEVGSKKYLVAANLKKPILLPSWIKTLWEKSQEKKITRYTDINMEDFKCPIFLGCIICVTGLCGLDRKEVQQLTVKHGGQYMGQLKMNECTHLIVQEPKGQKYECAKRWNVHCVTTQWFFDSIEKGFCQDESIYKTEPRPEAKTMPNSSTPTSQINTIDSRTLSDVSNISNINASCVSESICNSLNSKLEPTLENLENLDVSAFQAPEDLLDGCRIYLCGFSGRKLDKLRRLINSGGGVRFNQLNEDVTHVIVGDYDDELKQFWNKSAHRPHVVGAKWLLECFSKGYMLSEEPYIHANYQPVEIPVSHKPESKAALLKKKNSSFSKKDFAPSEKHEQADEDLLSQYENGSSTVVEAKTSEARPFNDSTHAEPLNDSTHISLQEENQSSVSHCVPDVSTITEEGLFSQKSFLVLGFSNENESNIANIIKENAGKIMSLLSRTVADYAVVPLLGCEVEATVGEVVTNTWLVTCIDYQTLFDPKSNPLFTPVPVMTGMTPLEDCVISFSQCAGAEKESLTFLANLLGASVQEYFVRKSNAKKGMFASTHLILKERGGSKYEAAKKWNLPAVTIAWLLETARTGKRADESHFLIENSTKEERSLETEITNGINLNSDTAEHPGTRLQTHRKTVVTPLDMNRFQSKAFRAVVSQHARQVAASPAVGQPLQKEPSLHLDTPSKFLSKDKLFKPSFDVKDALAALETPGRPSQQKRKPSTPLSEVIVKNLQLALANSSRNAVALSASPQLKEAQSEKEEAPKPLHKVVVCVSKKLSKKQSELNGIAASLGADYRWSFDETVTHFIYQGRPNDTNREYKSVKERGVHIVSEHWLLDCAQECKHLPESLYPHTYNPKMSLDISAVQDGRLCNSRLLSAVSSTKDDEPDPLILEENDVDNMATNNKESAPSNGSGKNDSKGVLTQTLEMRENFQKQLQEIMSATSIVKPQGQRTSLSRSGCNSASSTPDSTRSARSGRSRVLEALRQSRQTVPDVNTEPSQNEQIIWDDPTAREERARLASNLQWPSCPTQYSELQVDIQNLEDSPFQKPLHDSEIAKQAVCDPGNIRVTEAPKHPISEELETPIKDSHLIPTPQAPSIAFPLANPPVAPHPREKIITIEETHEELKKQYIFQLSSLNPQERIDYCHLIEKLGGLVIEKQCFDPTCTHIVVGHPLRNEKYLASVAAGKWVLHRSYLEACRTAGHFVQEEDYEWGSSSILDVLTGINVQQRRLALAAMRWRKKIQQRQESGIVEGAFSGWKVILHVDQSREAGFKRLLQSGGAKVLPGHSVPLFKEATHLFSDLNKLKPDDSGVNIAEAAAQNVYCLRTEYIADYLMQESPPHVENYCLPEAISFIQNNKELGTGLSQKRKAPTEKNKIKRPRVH
structure (smiles),measurement,setting,value
"CC(=O)OCOC(=O)CN(CC(=O)OCOC(C)=O)Cc1cc2c(cc1OC(C)=O)Oc1cc(OC(C)=O)c(CN(CC(=O)OCOC(C)=O)CC(=O)OCOC(C)=O)cc1C21OC(=O)c2ccccc21 [Calcein AM, Calcein AM (acetoxymethyl ester)]",p53 transcriptional activity,[1],enhanced
same,DNA damage (pS15-p53 or γ-H2AX signal),[2],did not see evidence of DNA damage
same,binding of p73 to mutp53,[3],release of p73 from mutp53
same,apoptosis (caspase 3/7 activation),[4],induced apoptosis
same,GI50,[5],1.4 µM
same,anti-apoptotic activity of overexpressed TopBP1 (doxorubicin resistance),"[6]; AdTopBP1-infected cells, doxorubicin, Calcein AM 2.5 μM",blocked
same,proliferation (MTS),"[6]; increasing concentrations, 5 h, versus MCF10A",preferentially inhibited the proliferation
same,TopBP1/E2F1 interaction at physiological levels,[7],inhibited
same,body weights of mice,[8]; [10],without affecting body weights
same,expression of proliferation marker Ki-67 in xenografts,[8]; [10],significantly inhibited
same,xenograft growth,[8]; [10],significantly inhibited xenograft growth
same,"immunohistochemistry of xenografts (Ki-67, TUNEL, cleaved caspase 3)",[8]; one week after the second injection,inhibition of proliferation and induction of apoptosis
same,tumor response to second round of treatment,"[8]; regrown tumors, second round from day 61",responded to Calcein AM injection again
same,interaction between TopBP1 and E2F1,[9],inhibited
